{
  "source": "patent US12194068B2",
  "about": "“Dietary supplement composition for treating and managing acne” (CODEX LABS CORPORATION, priority 2023, dated 2025)",
  "origin": "cited, not measured here",
  "system": "C. acnes",
  "conditions": "compared with benzoyl peroxide and erythromycin",
  "data": [
    {"smiles": "Oc1ccc(C=Cc2cc(O)cc(O)c2)cc1", "note": "[resveratrol]", "values": [
      {"measurement": "inhibition of C. acnes proliferation", "result": "on par with benzoyl peroxide and erythromycin"}
    ]}
  ]
}
